In BindingDB's records for patent US20260070887 (Shenzhen Zhongge Biological Technology Co., 2026):

What follows are compounds tested against T1, Kinesin-like protein KIF18A (Homo sapiens, UniProt Q8NI77) (assay: Assay of the Inhibitory Effects on KIF18A Activity In Vitro (ADP-Glo Assay)).
T1 sequence (Q8NI77 whole entry): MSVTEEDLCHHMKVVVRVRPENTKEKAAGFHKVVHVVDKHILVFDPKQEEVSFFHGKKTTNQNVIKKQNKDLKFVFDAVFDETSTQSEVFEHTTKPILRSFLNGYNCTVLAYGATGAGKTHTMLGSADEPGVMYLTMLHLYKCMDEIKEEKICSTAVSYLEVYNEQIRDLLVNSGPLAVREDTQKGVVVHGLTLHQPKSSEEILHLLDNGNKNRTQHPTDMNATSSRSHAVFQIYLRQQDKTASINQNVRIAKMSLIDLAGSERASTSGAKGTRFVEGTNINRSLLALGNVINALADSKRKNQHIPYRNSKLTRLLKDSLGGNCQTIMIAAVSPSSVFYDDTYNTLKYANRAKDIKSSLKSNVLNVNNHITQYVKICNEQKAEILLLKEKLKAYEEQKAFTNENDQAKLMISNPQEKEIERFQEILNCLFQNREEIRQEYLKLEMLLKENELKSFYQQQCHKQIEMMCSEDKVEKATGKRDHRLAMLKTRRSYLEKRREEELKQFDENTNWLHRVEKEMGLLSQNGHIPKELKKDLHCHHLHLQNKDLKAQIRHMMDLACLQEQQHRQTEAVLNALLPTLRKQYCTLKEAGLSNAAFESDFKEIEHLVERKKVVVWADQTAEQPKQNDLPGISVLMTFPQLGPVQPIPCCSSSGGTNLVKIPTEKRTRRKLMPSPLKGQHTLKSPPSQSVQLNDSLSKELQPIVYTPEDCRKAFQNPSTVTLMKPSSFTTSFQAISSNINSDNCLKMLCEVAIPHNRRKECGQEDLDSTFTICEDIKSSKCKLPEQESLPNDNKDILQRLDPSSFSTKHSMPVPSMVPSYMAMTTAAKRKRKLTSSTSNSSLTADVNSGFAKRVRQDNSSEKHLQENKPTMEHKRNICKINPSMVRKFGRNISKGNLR
Protocol: Experimental Method 1. Preparation of 30 mL of reaction buffer: (1) 450 μL 1M Tris-HCl (pH=7.5)+300 μL 1M MgCl2+30 μL 10% Pluronic F-68 (ThermoFisher, 24040032-100 ml); (2) adjusting pH to 7.5, and adding water to adjust the volume to 30 mL. 2. Preparation of a 5 mg/mL pig microtubule (Microtubules; MT) (Cytoskeleton Inc, MT002) stock solution: (1) 10 mL PM buffer=150 μL 1 M PIPES (pH 7.0)+20 μL 0.5 mM MgCl2+100 μL 2 mM Taxol (Cytoskeleton Inc, TXD01)+9730 μL water. (2) MT (500 ag/tube): Adding 100 μL PM buffer to prepare a 5 mg/mL stock solution. Keeping the MT (Cytoskeleton Inc, MT002) at room temperature for 10-15 minutes, gently mixing and storing same at −80° C. 3. Preparation of 2 mL of kinase buffer: 2 mL reaction buffer+1 μL 2 mM Taxol (Cytoskeleton Inc, TXD01)+12 μL 5 mg/mL MT (Cytoskeleton Inc, MT002). 4. Preparation of 2×KIF18A (30 nM) (ChemPartner, CPB-P22-31645) working solution: 2.4 μL 10 μM KIF18A (ChemPartner, CPB-P22-31645)+800 μL 1× kinase buffer. 5. Preparation of 2×ATP (150 μM) (Promega, G9101) working solution: 12 μL 10 mM ATP+800 μL 1× kinase buffer. 6. 25 nL of compound was transferred to a 384-well plate using Echo650. 7. 2.5 μL of 2×KIF18A from Step 4 (final concentration of 30 nM) was added to the 384-well plate and the plate was incubated at 25° C. for 15 minutes. 8. 2.5 μL of 2×ATP from Step 5 (final concentration of 150 μM) was added to the 384-well plate and the plate was incubated at 25° C. for 15 minutes. 9. 5 μL ADP-Glo™ Reagent (Promega, G9101) was added to the 384-well plate and the plate was incubated at 25° C. for 40 minutes. 10. 10 μL of kinase detection reagent (Promega, G9101) was added to the 384-well plate and the plate was incubated at 25° C. for 40 minutes. 11. Luminescence values were measured using the EnVision Xcite Multilabel Reader (PerkinElmer, 2105-0020).

Q: For `Nc1ccc(S(=O)(=O)Nc2ccc(C(=O)Nc3ccnc4c3CCN4CC3CC3)c(N3CCC4(CC3)CC4)c2)c(CCO)c1` [US20260070887, Example 32], which IC50 is on record?
A: in the range around 275 nM

Q: `Nc1ccc(S(=O)(=O)Nc2ccc(C(=O)Nc3ccnc4c3ccn4CC3CC3)c(N3CCC4(CC3)CC4)c2)c(CCO)c1` [US20260070887, Example 33] was tested. Which IC50 did it give?
A: < 50 nM

Q: For `COc1ccc(C(=O)Nc2cccc3c2ccn3CC2CC2)c(N2CCC3(CC2)CC3)c1` [US20260070887, Example 127], which IC50 is on record?
A: < 50 nM

Q: For `COc1ccc(NC(=O)c2ccc(NS(=O)(=O)CCO)cc2N2CCC3(CC2)CC3)c2cc3n(c12)CCOC3` [US20260070887, Example 404], which IC50 is on record?
A: < 50 nM

Q: Which IC50 does the source give for `COC1c2cc3c(NC(=O)c4ccc(NS(=O)(=O)CCO)cc4N4CCC(=C(F)F)CC4)ccc(C#N)c3n2CCC1(F)F` (centres undefined) [US20260070887, Example 427] here?
A: < 50 nM

Q: Which IC50 does the source give for `CC1(C)Cn2c(cc3c(NC(=O)c4cnc(NS(=O)(=O)CCO)cc4N4CCC5(CC4)CC5)cccc32)CO1` [US20260070887, Example 454] here?
A: < 50 nM

Q: Which IC50 does the source give for `COc1ccc(NC(=O)c2ccc(NS(=O)(=O)CCO)cc2N2CCC3(CC2)CC3)c2cc3n(c12)CCC(F)(F)C3` [US20260070887, Example 478] here?
A: < 50 nM

Q: With `CC1(C)Cn2c(cc3c(NC(=O)c4ccc(NS(=O)(=O)c5ccc(N)cc5CCO)cc4N4CCC5(CC4)CC5)ccc(F)c32)CO1` [US20260070887, Example 519] as the compound, how does the IC50 read?
A: in the range around 275 nM

Q: `CC1(C)Cn2c(cc3c(NC(=O)c4ccc(NS(=O)(=O)CCO)cc4N4CCC(=C(F)F)CC4)ccc(Cl)c32)CO1` [US20260070887, Example 522] was tested. Which IC50 did it give?
A: < 50 nM
